{"source": "PubChem BioAssay (NCI)", "test_in_all_cases": "NCI tumour cell line growth inhibition, 48 h", "key": {"[1]": {"system": "SNB-78 CNS"}, "[2]": {"system": "SF-295 CNS"}, "[3]": {"system": "UO-31 renal"}, "[4]": {"system": "KM20L2 colon"}, "[5]": {"system": "DMS 114 small cell lung"}, "[6]": {"system": "DMS 273 small cell lung"}, "[7]": {"system": "SNB-75 CNS"}, "[8]": {"system": "U251 CNS"}, "[9]": {"system": "KM12 colon"}, "[10]": {"system": "A498 renal"}, "[11]": {"system": "OVCAR-4 ovarian"}, "[12]": {"system": "LOX IMVI melanoma"}, "[13]": {"system": "IGROV1 ovarian"}, "[14]": {"system": "A549 NSCLC"}, "[15]": {"system": "SK-MEL-5 melanoma"}, "[16]": {"system": "OVCAR-5 ovarian"}, "[17]": {"system": "MALME-3M melanoma"}, "[18]": {"system": "OVCAR-8 ovarian"}, "[19]": {"system": "NCI-H226 lung"}, "[20]": {"system": "HCT-15 colon"}}, "note": "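These data come from cells grown in 96-well plates and exposed to compound for 48 hours at five concentrations. Definition used: TGI = concentration required for complete inhibition of growth.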", "data": [{"smiles": "COC(=O)C(=O)C(C(=O)Nc1cccc(C)c1C)C1Sc2ccccc2NC1=O", "note": "(stereo not given)", "values": [{"measurement": "TGI", "setting": "[1]", "value": "> 25", "unit": "µM"}, {"measurement": "TGI", "setting": "[2]", "value": "> 25", "unit": "µM"}, {"measurement": "TGI", "setting": "[3]", "value": "> 25", "unit": "µM"}, {"measurement": "TGI", "setting": "[4]", "value": "> 25", "unit": "µM"}, {"measurement": "TGI", "setting": "[5]", "value": 19, "unit": "µM"}, {"measurement": "TGI", "setting": "[6]", "value": "> 25", "unit": "µM"}, {"measurement": "TGI", "setting": "[7]", "value": "> 25", "unit": "µM"}, {"measurement": "TGI", "setting": "[8]", "value": "> 25", "unit": "µM"}, {"measurement": "TGI", "setting": "[9]", "value": "> 25", "unit": "µM"}, {"measurement": "TGI", "setting": "[10]", "value": "> 25", "unit": "µM"}, {"measurement": "TGI", "setting": "[11]", "value": "> 25", "unit": "µM"}, {"measurement": "TGI", "setting": "[12]", "value": "> 25", "unit": "µM"}, {"measurement": "TGI", "setting": "[13]", "value": "> 25", "unit": "µM"}, {"measurement": "TGI", "setting": "[14]", "value": "> 25", "unit": "µM"}, {"measurement": "TGI", "setting": "[15]", "value": "> 25", "unit": "µM"}, {"measurement": "TGI", "setting": "[16]", "value": "> 25", "unit": "µM"}, {"measurement": "TGI", "setting": "[17]", "value": 24, "unit": "µM"}, {"measurement": "TGI", "setting": "[18]", "value": "> 25", "unit": "µM"}, {"measurement": "TGI", "setting": "[19]", "value": "> 25", "unit": "µM"}, {"measurement": "TGI", "setting": "[20]", "value": "> 25", "unit": "µM"}]}, {"smiles": "Cc1c2cc[nH]c(C(F)(F)F)c2cc2c1nc1ccccc12", "values": [{"measurement": "TGI", "setting": "[1]", "value": "> 125", "unit": "µM"}, {"measurement": "TGI", "setting": "[2]", "value": "> 125", "unit": "µM"}, {"measurement": "TGI", "setting": "[3]", "value": "> 125", "unit": "µM"}, {"measurement": "TGI", "setting": "[4]", "value": "> 125", "unit": "µM"}, {"measurement": "TGI", "setting": "[5]", "value": "> 125", "unit": "µM"}, {"measurement": "TGI", "setting": "[6]", "value": "> 125", "unit": "µM"}, {"measurement": "TGI", "setting": "[7]", "value": 108, "unit": "µM"}, {"measurement": "TGI", "setting": "[8]", "value": "> 125", "unit": "µM"}, {"measurement": "TGI", "setting": "[9]", "value": "> 125", "unit": "µM"}, {"measurement": "TGI", "setting": "[10]", "value": "> 113", "unit": "µM"}, {"measurement": "TGI", "setting": "[11]", "value": "> 125", "unit": "µM"}, {"measurement": "TGI", "setting": "[12]", "value": "> 125", "unit": "µM"}, {"measurement": "TGI", "setting": "[13]", "value": "> 125", "unit": "µM"}, {"measurement": "TGI", "setting": "[14]", "value": "> 125", "unit": "µM"}, {"measurement": "TGI", "setting": "[15]", "value": "> 125", "unit": "µM"}, {"measurement": "TGI", "setting": "[16]", "value": "> 125", "unit": "µM"}, {"measurement": "TGI", "setting": "[17]", "value": "> 125", "unit": "µM"}, {"measurement": "TGI", "setting": "[18]", "value": "> 125", "unit": "µM"}, {"measurement": "TGI", "setting": "[19]", "value": "> 125", "unit": "µM"}, {"measurement": "TGI", "setting": "[20]", "value": "> 125", "unit": "µM"}]}, {"smiles": "Cn1cnc([N+](=O)[O-])c1Sc1nc2cc(Cl)c(F)cc2[nH]1", "values": [{"measurement": "TGI", "setting": "[1]", "value": 25.9, "unit": "µM"}, {"measurement": "TGI", "setting": "[2]", "value": "> 100", "unit": "µM"}, {"measurement": "TGI", "setting": "[3]", "value": 27.6, "unit": "µM"}, {"measurement": "TGI", "setting": "[4]", "value": 26.9, "unit": "µM"}, {"measurement": "TGI", "setting": "[5]", "value": 20.7, "unit": "µM"}, {"measurement": "TGI", "setting": "[6]", "value": 17.2, "unit": "µM"}, {"measurement": "TGI", "setting": "[7]", "value": 39.3, "unit": "µM"}, {"measurement": "TGI", "setting": "[8]", "value": 24, "unit": "µM"}, {"measurement": "TGI", "setting": "[9]", "value": 36.6, "unit": "µM"}, {"measurement": "TGI", "setting": "[10]", "value": 51, "unit": "µM"}, {"measurement": "TGI", "setting": "[11]", "value": 21, "unit": "µM"}, {"measurement": "TGI", "setting": "[12]", "value": 39.7, "unit": "µM"}, {"measurement": "TGI", "setting": "[13]", "value": 35.8, "unit": "µM"}, {"measurement": "TGI", "setting": "[14]", "value": 54.3, "unit": "µM"}, {"measurement": "TGI", "setting": "[15]", "value": 24, "unit": "µM"}, {"measurement": "TGI", "setting": "[16]", "value": "> 100", "unit": "µM"}, {"measurement": "TGI", "setting": "[17]", "value": 27.5, "unit": "µM"}, {"measurement": "TGI", "setting": "[18]", "value": 23.2, "unit": "µM"}, {"measurement": "TGI", "setting": "[19]", "value": 33, "unit": "µM"}, {"measurement": "TGI", "setting": "[20]", "value": 17.6, "unit": "µM"}]}]}
